Measurements taken from patent US20240277829A1, “HIV-1 VACCINATION AND SAMT-247 MICROBICIDE TO PREVENT HIV-1 INFECTION” (priority 2021, published 2024).

System: mucosal Th1 and Th2 cells
Experiment: Frequencies and cytokine levels of macaque rectal mucosal T cells following SAMT-247 and PMA stimulation
Type: cell-based
Conditions: following PMA stimulation
Source text: Additionally, rectal tissue from 9 macaques was used for an in vitro study. The age-matched macaques from this separate study (P204) included 4 animals vaccinated against HIV and 5 naïve animals, all challenged with SHIV. Rectal tissue was obtained post challenge from 7 infected and 2 uninfected animals for the P204 study analysis. Extra cells were available from that collection and were used here for the in vitro study.
Frequencies and cytokine levels of macaque rectal mucosal NK cells and T cells following SAMT-247 and PMA stimulation. NK/ILC and T cell frequencies and cytokine levels were measured in macaque rectal mucosa. Freshly collected rectal biopsies were processed to single cells and cultured in R10 in the presence/or absence of SAMT-247 and/or PMA for 12 hours. Subsequently, cells were stained for live cells with Live/Dead Blue dye (cat. #L34962, 0.5 μl) from Thermofisher; followed by surface staining with the following: BUV737 anti-CD3 (SP34-2; cat. #741872, 5 μl), BV711 anti-CD4 (L200; cat. #563913, 5 μl), BV650 anti-NKp44 (P44-8; cat. #744302, 5 μl), Alexa700 anti-CD20 (2H7; cat. #560631, 5 μl), BV786 anti-CD45 (D058-1283; cat. #563861, 5 μl) from BD Biosciences; APC-H7 anti-CD11b (ICRF44; cat. #47-0118-42, 5 μl), PE-Cy5 anti-CD95 (ICRF44; cat. #15-0959-42, 5 μl) from eBioscience; BV570 anti-CD8 (RPA-T8; cat. #301038, 5 μl), BV605 anti-CCR6 (G034E3; cat. #353420, 5 μl), APC anti-CXCR3 (G025H7; cat. #353708, 5 μl), from Biolegend and PE-Cy7 anti-NKG2A (Z199; cat. #B10246, 5 μl) from Beckman coulter for 30 minutes at room temperature. This was followed by permeabilization with a FOX3-transcription buffer set (cat. #00-5523-00) from eBioscience according to the manufacture's recommendation and subsequently intracellular staining with the following: BV750 anti-TNF-α (MAB11; cat. #566359, 5 μl), BUV395 anti-IFN-γ (B27; cat. #563563, 5 μl), BV510 anti-GranB (GB11; cat. #563388, 5 μl), BV421 anti-IL-10 (JES3-9D7; cat. #564053, 5 μl) from BD Biosciences; PE-Cy5.5 anti-IL-17 (BL168; cat. #512314, 5 μl) from Biolegend; and FITC anti-Perforin (pf-344; cat. #3465-7, 5 μl) from MABTECH for 30 minutes at room temperature. Flow cytometry acquisitions were performed on a FACSymphony A5 and examined using FACSDiva software (BD Biosciences).

CC(=O)Sc1ccccc1C(=O)NCCC(N)=O [SAMT-247]
IL-10 production in mucosal Th1 cells: increase | TNF-α production in mucosal Th1 and Th2 cells: significant decrease
